# Assay results from ChEMBL document CHEMBL1155206, “Synthesis and in vitro evaluation of 2,4-diamino-1,3,5-triazine derivatives as neuronal voltage-gated sodium channel blockers” (Bioorg Med Chem Lett, 2009).
# Legend:
# [1] = Displacement of [3H]BTX-B from neurotoxin site 2 of voltage gated sodium channel in rat cerebral cortex synaptoneurosomes after 30 mins by scintillation counting; format: tissue-based
# Dihydrofolate reductase = target: T1, Dihydrofolate reductase (Bos taurus, UniProt P00376); experiment: Inhibition of bovine liver DHFR assessed as NADPH consumption during conversion of dihydrofolic acid to tetrahydrofolic acid
# T1 sequence (P00376 whole entry): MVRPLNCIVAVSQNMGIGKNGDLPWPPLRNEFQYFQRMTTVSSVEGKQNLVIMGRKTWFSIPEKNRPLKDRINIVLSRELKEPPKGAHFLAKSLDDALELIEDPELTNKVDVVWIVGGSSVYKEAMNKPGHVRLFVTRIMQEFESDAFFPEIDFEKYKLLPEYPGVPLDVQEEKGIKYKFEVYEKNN
SMILES,IC50 [1] [µM],IC50 (Dihydrofolate reductase) [µM]
CC1(C)N=C(N)N=C(N)N1Cc1ccccc1,53.2,19.5
CC1(C)N=C(N)N=C(Nc2ccc(Cl)cc2)N1,24.7,> 100
CC1(C)N=C(N)N=C(Nc2ccccc2Cl)N1,85.5,> 100
Nc1nc(CCl)nc(Nc2ccc(Cl)c(Cl)c2)n1,168,> 100
COc1ccccc1NC1=NC(N)=NC(C)(C)N1,343,> 100
COc1cccc(NC2=NC(N)=NC(C)(C)N2)c1,76.2,> 100
Cc1ccc(N2C(N)=NC(N)=NC23CCCCC3)cc1,4.2,> 100
COc1ccccc1N1C(N)=NC(N)=NC12CCCCC2,12.3,> 100
CC1(C)N=C(N)N=C(Nc2ccccc2Br)N1,57.5,> 100
COc1ccc(CN2C(N)=NC(N)=NC2(C)C)cc1,59.8,58.8
CC1(C)N=C(N)N=C(Nc2ccccc2)N1,259,> 100
NC1=NC2(CCCCC2)N(c2ccccc2)C(N)=N1,14.7,> 100
NC1=NC2(CCCCC2)N(c2ccc(Cl)cc2)C(N)=N1,4.4,> 100
Cc1ccccc1N1C(N)=NC(N)=NC12CCCCC2,9.1,> 100
COc1ccc(NC2=NC(N)=NC(C)(C)N2)cc1,207,> 100
CC1(C)N=C(N)N=C(N)N1Cc1ccc(Cl)cc1,35.3,29.9
Nc1nc(CCl)nc(Nc2cccc([N+](=O)[O-])c2)n1,190,> 100
COc1cccc(N2C(N)=NC(N)=NC23CCCCC3)c1,5.1,> 100

SMILES,IC50 [1] [µM],IC50 (Dihydrofolate reductase) [µM]
Cc1nc(N)nc(Nc2cccc(Cl)c2)n1,246,> 100
CC1(C)N=C(N)NC(Nc2ccc(Br)cc2)=N1,18.4,> 100
Cc1ccccc1NC1=NC(N)=NC(C)(C)N1,582,> 100
Cc1cccc(N2C(N)=NC(N)=NC23CCCCC3)c1,4.7,> 100
NC1=NC2(CCCCC2)N(c2ccccc2Cl)C(N)=N1,13,> 100
CC1(C)N=C(N)N=C(Nc2cccc(Br)c2)N1,12.6,> 100
NC1=NC2(CCCCC2)N(c2cccc(Cl)c2)C(N)=N1,4,> 100
CC1(C)N=C(N)N=C(Nc2cccc(Cl)c2)N1,16.5,> 100
Cc1ccc(CN2C(N)=NC(N)=NC2(C)C)cc1,32.2,24.6
Cc1ccc(NC2=NC(N)=NC(C)(C)N2)cc1,71.5,> 100
Cc1cccc(NC2=NC(N)=NC(C)(C)N2)c1,186,> 100
Cc1nc(N)nc(Nc2cccc(Br)c2)n1,198,> 100
COc1ccc(N2C(N)=NC(N)=NC23CCCCC3)cc1,7.8,> 100
CC1(C)N=C(N)N=C(N)N1Cc1ccc(Cl)c(Cl)c1,19,12.8
Cc1nc(N)nc(Nc2ccc(Cl)c(Cl)c2)n1,274,> 100
Nc1nc(CCl)nc(Nc2cccc(Br)c2)n1,172,> 100
O=C1NC(=O)C(c2ccccc2)(c2ccccc2)N1 [PHENYTOIN],126,> 100
